Our source for the IC50 values is ChEMBL document CHEMBL4024732, “Discovery of a novel and potent class of anti-HIV-1 maturation inhibitors with improved virology profile against gag polymorphisms” (Bioorg Med Chem Lett, 2017).

What all share (type): cell-based
What all share (settings): Human immunodeficiency virus 1, clade B NL4-3, MT4

Test [1] is described as follows: Inhibition of bevirimat-resistant HIV1 clade B NL4-3 CA-SP1 T371A mutant infected in human MT4 cells.
Test [2] in a line: Inhibition of wild type HIV-1 clade B NL4-3 Gag polyprotein SP1 infected in human MT4 cells.
Test [3] in a line: Inhibition of bevirimat-resistant HIV1 clade B NL4-3 CA-SP1 V370A mutant infected in human MT4 cells.
The nature of test [4]: Inhibition of bevirimat-resistant HIV1 clade B NL4-3 CA-SP1 Q369H mutant infected in human MT4 cells.

Each structure is given as a SMILES string.

By IC50 is commonly meant the concentration that gives 50% inhibition. Low values mean greater potency, high ones weaker potency. Turning to `CC(C)C1=C2[C@H]3CC[C@@H]4[C@@]5(C)CC[C@H](OC(=O)CC(C)(C)C(=O)O)C(C)(C)[C@@H]5CC[C@@]4(C)[C@]3(C)CC[C@@]2(C(=O)C(=O)N[C@H](C)c2ccc(Cl)cc2)CC1=O`, the IC50 came out at 5 nM in test [1], 18 nM in test [2], 25 nM in test [3] and 25 nM in test [4].

For the molecule `CC(C)C1=C2[C@H]3CC[C@@H]4[C@@]5(C)CC[C@H](OC(=O)CC(C)(C)C(=O)O)C(C)(C)[C@@H]5CC[C@@]4(C)[C@]3(C)CC[C@@]2(C(=O)C(=O)NCc2c(Cl)cccc2Cl)CC1=O`, the IC50 in test [2] amounted to 85 nM; in test [3], 1070 nM.

As for `CC[C@@H](NC(=O)C(=O)[C@@]12CC[C@]3(C)[C@H](CC[C@@H]4[C@@]5(C)CC[C@H](OC(=O)CC(C)(C)C(=O)O)C(C)(C)[C@@H]5CC[C@]43C)C1=C(C(C)C)C(=O)C2)c1ccc(Cl)cc1`, the IC50 in test [1] came to 12 nM; in test [2], 28 nM; in test [3] it was 64 nM; in test [4], 74 nM.

On to `CC(C)C1=C2[C@H]3CC[C@@H]4[C@@]5(C)CC[C@H](OC(=O)CC(C)(C)C(=O)O)C(C)(C)[C@@H]5CC[C@@]4(C)[C@]3(C)CC[C@@]2(C(=O)C(=O)NC2(c3ccc(Cl)cc3)CCC2)CC1=O`, for which the IC50 in test [1] was 17 nM; in test [2], 29 nM; in test [3] it was 65 nM; in test [4], 48 nM.

As to `CC(C)C1=C2[C@H]3CC[C@@H]4[C@@]5(C)CC[C@H](OC(=O)CC(C)(C)C(=O)O)C(C)(C)[C@@H]5CC[C@@]4(C)[C@]3(C)CC[C@@]2(C(=O)C(=O)NC(C)(C)c2ccccc2)CC1=O`, the IC50 in test [2] is 18 nM; in test [3], 19 nM.

In the case of `CC(C)C1=C2[C@H]3CC[C@@H]4[C@@]5(C)CC[C@H](OC(=O)CC(C)(C)C(=O)O)C(C)(C)[C@@H]5CC[C@@]4(C)[C@]3(C)CC[C@@]2(C(=O)C(=O)NCc2ccc(Cl)cc2Cl)CC1=O`, the IC50 was found to be 37 nM in test [2] and 193 nM in test [3].

Take `CC(C)C1=C2[C@H]3CC[C@@H]4[C@@]5(C)CC[C@H](OC(=O)CC(C)(C)C(=O)O)C(C)(C)[C@@H]5CC[C@@]4(C)[C@]3(C)CC[C@@]2(C(=O)C(=O)N2CCC2)CC1=O`: the values for the IC50 in test [2] and in test [3] were 5600 nM and above 10000 nM, respectively.

Regarding `CC(C)C1=C2[C@H]3CC[C@@H]4[C@@]5(C)CC[C@H](OC(=O)CC(C)(C)C(=O)O)C(C)(C)[C@@H]5CC[C@@]4(C)[C@]3(C)CC[C@@]2(C(=O)C(=O)NCc2cccc(Cl)c2)CC1=O`, the results for the IC50 in test [2] and in test [3] were 16 nM and 370 nM, respectively.

Consider `Cc1ccc(NC(=O)C(=O)[C@@]23CC[C@]4(C)[C@H](CC[C@@H]5[C@@]6(C)CC[C@H](OC(=O)CC(C)(C)C(=O)O)C(C)(C)[C@@H]6CC[C@]54C)C2=C(C(C)C)C(=O)C3)cc1`, for which the IC50 came out at 251 nM in test [2] and 664 nM in test [3].

Take `COc1ccc(CNC(=O)C(=O)[C@@]23CC[C@]4(C)[C@H](CC[C@@H]5[C@@]6(C)CC[C@H](OC(=O)CC(C)(C)C(=O)O)C(C)(C)[C@@H]6CC[C@]54C)C2=C(C(C)C)C(=O)C3)cc1`: the IC50 stood at 99 nM in test [2] and 8000 nM in test [3].

For `CC(C)C1=C2[C@H]3CC[C@@H]4[C@@]5(C)CC[C@H](OC(=O)CC(C)(C)C(=O)O)C(C)(C)[C@@H]5CC[C@@]4(C)[C@]3(C)CC[C@@]2(C(=O)C(=O)NC2CCCCC2)CC1=O`, the values for the IC50 in test [2] and in test [3] were 28 nM and 329 nM, respectively.

On to `CC(C)C1=C2[C@H]3CC[C@@H]4[C@@]5(C)CC[C@H](OC(=O)CC(C)(C)C(=O)O)C(C)(C)[C@@H]5CC[C@@]4(C)[C@]3(C)CC[C@@]2(C(=O)C(=O)NC(C)(C)c2ccc(Cl)cc2)CC1=O`, for which the IC50 was determined as 11 nM in test [1], 19 nM in test [2], 17 nM in test [3] and 17 nM in test [4].

For `CC(C)C1=C2[C@H]3CC[C@@H]4[C@@]5(C)CC[C@H](OC(=O)CC(C)(C)C(=O)O)C(C)(C)[C@@H]5CC[C@@]4(C)[C@]3(C)CC[C@@]2(C(=O)C(=O)NCc2ccc(Cl)cc2)CC1=O`, the IC50 in test [2] was 12 nM; in test [3] it was 87 nM.

As to `CC(C)C1=C2[C@H]3CC[C@@H]4[C@@]5(C)CC[C@H](OC(=O)CC(C)(C)C(=O)O)C(C)(C)[C@@H]5CC[C@@]4(C)[C@]3(C)CC[C@@]2(C(=O)C(=O)NCc2cccs2)CC1=O`, the IC50 in test [2] stood at 21 nM; in test [3], 1620 nM.

`CC(C)C1=C2[C@H]3CC[C@@H]4[C@@]5(C)CC[C@H](OC(=O)CC(C)(C)C(=O)O)C(C)(C)[C@@H]5CC[C@@]4(C)[C@]3(C)CC[C@@]2(C(=O)C(=O)NCc2ccc(C(F)(F)F)cc2)CC1=O`: the IC50 in test [2] is 135 nM; in test [3], 1320 nM.

Consider `CC(C)C1=C2[C@H]3CC[C@@H]4[C@@]5(C)CC[C@H](OC(=O)CC(C)(C)C(=O)O)C(C)(C)[C@@H]5CC[C@@]4(C)[C@]3(C)CC[C@@]2(C(=O)C(=O)NCCCN2CCCC2)CC1=O`, for which the IC50 in test [2] was found to be 1180 nM; in test [3], 7500 nM.

`CC(C)C1=C2[C@H]3CC[C@@H]4[C@@]5(C)CC[C@H](OC(=O)CC(C)(C)C(=O)O)C(C)(C)[C@@H]5CC[C@@]4(C)[C@]3(C)CC[C@@]2(C(=O)C(=O)NCc2ccc(F)cc2)CC1=O`: the results for the IC50 in test [2] and in test [3] were 16 nM and 202 nM, respectively.

With `CC(C)C1=C2[C@H]3CC[C@@H]4[C@@]5(C)CC[C@H](OC(=O)CC(C)(C)C(=O)O)C(C)(C)[C@@H]5CC[C@@]4(C)[C@]3(C)CC[C@@]2(C(=O)C(=O)NCCN2CCCC2)CC1=O`, the IC50 in test [2] is 1000 nM; in test [3] it was above 10000 nM.

As for `CC(C)C1=C2[C@H]3CC[C@@H]4[C@@]5(C)CC[C@H](OC(=O)CC(C)(C)C(=O)O)C(C)(C)[C@@H]5CC[C@@]4(C)[C@]3(C)CC[C@@]2(C(=O)C(=O)NCC2CCCCC2)CC1=O`, the IC50 is 11 nM in test [2] and 27 nM in test [3].

Turning to `CC(C)C1=C2[C@H]3CC[C@@H]4[C@@]5(C)CC[C@H](OC(=O)CC(C)(C)C(=O)O)C(C)(C)[C@@H]5CC[C@@]4(C)[C@]3(C)CC[C@@]2(C(=O)C(=O)Nc2ccc(F)cc2)CC1=O`, the results for the IC50 in test [2] and in test [3] were 130 nM and 1800 nM, respectively.

`CC(C)C1=C2[C@H]3CC[C@@H]4[C@@]5(C)CC[C@H](OC(=O)CC(C)(C)C(=O)O)C(C)(C)[C@@H]5CC[C@@]4(C)[C@]3(C)CC[C@@]2(C(=O)C(=O)NCc2ccncc2)CC1=O`: the IC50 in test [2] is 6200 nM; in test [3], above 10000 nM.

As to `CC(C)C1=C2[C@H]3CC[C@@H]4[C@@]5(C)CC[C@H](OC(=O)CC(C)(C)C(=O)O)C(C)(C)[C@@H]5CC[C@@]4(C)[C@]3(C)CC[C@@]2(C(=O)C(=O)NCc2ccccc2Cl)CC1=O`, the results for the IC50 in test [2] and in test [3] were 17 nM and 486 nM, respectively.

In the case of `CC(C)C1=C2[C@H]3CC[C@@H]4[C@@]5(C)CC[C@H](OC(=O)CC(C)(C)C(=O)O)C(C)(C)[C@@H]5CC[C@@]4(C)[C@]3(C)CC[C@@]2(C(=O)C(=O)O)CC1=O`, the IC50 in test [2] was above 10000 nM.

For `CNC(=O)C(=O)[C@@]12CC[C@]3(C)[C@H](CC[C@@H]4[C@@]5(C)CC[C@H](OC(=O)CC(C)(C)C(=O)O)C(C)(C)[C@@H]5CC[C@]43C)C1=C(C(C)C)C(=O)C2`, the results for the IC50 in test [2] and in test [3] were 1320 nM and 6670 nM, respectively.
